Measured values published in the NIST ThermoML archive (doi:10.1016/j.jct.2008.02.019).

Key:
[1] = excess molar enthalpy (molar enthalpy of mixing); xn = mol fraction of the nth substance listed; settings: 101 kPa, Liquid, Flow calorimetry
[2] = xn = mol fraction of the nth substance listed; settings: 101 kPa, Liquid
[3] = 318.15 K; 101.33 kPa; Liquid; Vibrating tube method
[4] = refractive index (Na D-line) (dimensionless); settings: 101.33 kPa, Liquid, Standard Abbe refractometry

CCCC[n+]1ccc(C)cc1.F[B-](F)(F)F [1-butyl-4-methylpyridinium tetrafluoroborate] + CCO
Settings	excess molar enthalpy [kcal/mol]	mass density [kg/m3]
[1], 298.15 K, x1 = 0.0209	0.0715	–
[1], 298.15 K, x1 = 0.0461	0.149	–
[1], 298.15 K, x1 = 0.0751	0.224	–
[1], 298.15 K, x1 = 0.1068	0.285	–
[1], 298.15 K, x1 = 0.1406	0.358	–
[1], 298.15 K, x1 = 0.1751	0.419	–
[1], 298.15 K, x1 = 0.2104	0.481	–
[1], 298.15 K, x1 = 0.246	0.527	–
[1], 298.15 K, x1 = 0.2661	0.554	–
[1], 298.15 K, x1 = 0.3	0.571	–
[1], 298.15 K, x1 = 0.3402	0.58	–
[1], 298.15 K, x1 = 0.3855	0.57	–
[1], 298.15 K, x1 = 0.4296	0.545	–
[1], 298.15 K, x1 = 0.4879	0.505	–
[1], 298.15 K, x1 = 0.5522	0.455	–
[1], 298.15 K, x1 = 0.6225	0.389	–
[1], 298.15 K, x1 = 0.712	0.318	–
[1], 298.15 K, x1 = 0.8071	0.223	–
[1], 298.15 K, x1 = 0.903	0.12	–
[1], 318.15 K, x1 = 0.0162	0.0906	–
[1], 318.16 K, x1 = 0.0465	0.211	–
[1], 318.17 K, x1 = 0.075	0.315	–
[1], 318.18 K, x1 = 0.108	0.408	–
[1], 318.19 K, x1 = 0.1427	0.495	–
[1], 318.2 K, x1 = 0.178	0.566	–
[1], 318.21 K, x1 = 0.2091	0.623	–
[1], 318.22 K, x1 = 0.2364	0.658	–
[1], 318.23 K, x1 = 0.2498	0.683	–
[1], 318.24 K, x1 = 0.2824	0.708	–
[1], 318.25 K, x1 = 0.3237	0.718	–
[1], 318.26 K, x1 = 0.3722	0.717	–
[1], 318.27 K, x1 = 0.4286	0.697	–
[1], 318.28 K, x1 = 0.4859	0.664	–
[1], 318.29 K, x1 = 0.5506	0.618	–
[1], 318.3 K, x1 = 0.6196	0.558	–
[1], 318.31 K, x1 = 0.6923	0.483	–
[1], 318.32 K, x1 = 0.7625	0.404	–
[1], 318.33 K, x1 = 0.8348	0.315	–
[1], 318.34 K, x1 = 0.9014	0.213	–
[1], 318.35 K, x1 = 0.9592	0.102	–
[2], 298.15 K, x1 = 0.0523	–	852
[2], 298.15 K, x1 = 0.1023	–	901.7
[2], 298.15 K, x1 = 0.1469	–	938.3
[2], 298.15 K, x1 = 0.2023	–	976
[2], 298.15 K, x1 = 0.307	–	1030.5
[2], 298.15 K, x1 = 0.3801	–	1059.5
[2], 298.15 K, x1 = 0.4445	–	1080.8
[2], 298.15 K, x1 = 0.5069	–	1098.6
[2], 298.15 K, x1 = 0.5553	–	1110.8
[2], 298.15 K, x1 = 0.6045	–	1121.8
[2], 298.15 K, x1 = 0.6639	–	1134.2
[2], 298.15 K, x1 = 0.7127	–	1142.8
[2], 298.15 K, x1 = 0.7447	–	1148.4
[2], 298.15 K, x1 = 0.7964	–	1156.8
[2], 298.15 K, x1 = 0.8673	–	1167
[2], 298.15 K, x1 = 0.9171	–	1173.6
[2], 318.15 K, x1 = 0.0464	–	827.9
[2], 318.15 K, x1 = 0.0965	–	881.1
[2], 318.15 K, x1 = 0.1445	–	921.6
[2], 318.15 K, x1 = 0.2494	–	987.9
[2], 318.15 K, x1 = 0.2968	–	1011
[2], 318.15 K, x1 = 0.3855	–	1046.8
[2], 318.15 K, x1 = 0.4947	–	1080.9
[2], 318.15 K, x1 = 0.5877	–	1103.6
[2], 318.15 K, x1 = 0.6821	–	1123.2
[2], 318.15 K, x1 = 0.7798	–	1139.8
[2], 318.15 K, x1 = 0.8267	–	1146.8
[2], 318.15 K, x1 = 0.8776	–	1153.8

CCCCCO [pentan-1-ol]
Settings	mass density [kg/m3]
[3]	796.1

[4]
Settings	refractive index
298.15 K	1.4078
318.15 K	1.4003
